Laboratory results from ChEMBL document CHEMBL5338773, “First-in-Class Selective Inhibitors of the Lysine Acetyltransferase KAT8” (J Med Chem, 2023).
Active and inactive are the calls of the source. The rule behind the calls is not given here.

Tests used:
[1] = target: T1, Histone acetyltransferase KAT8 (Homo sapiens) (UniProt Q9H7Z6); assay: Time dependent inhibition of N-terminal 6His tagged KAT8 (173 to 458 residues) (unknown origin) expressed in Escherichia coli BL21(DE3) using biotinylated histone H4 peptide and [3H]Acetyl-CoA as substrates at 200 uM preincubated for 5 to 120 mins followed by substrate addition and measured after 4 hrs by MicroBeta microplate counter analysis; conditions: time 245-360 min
T1 sequence (whole entry): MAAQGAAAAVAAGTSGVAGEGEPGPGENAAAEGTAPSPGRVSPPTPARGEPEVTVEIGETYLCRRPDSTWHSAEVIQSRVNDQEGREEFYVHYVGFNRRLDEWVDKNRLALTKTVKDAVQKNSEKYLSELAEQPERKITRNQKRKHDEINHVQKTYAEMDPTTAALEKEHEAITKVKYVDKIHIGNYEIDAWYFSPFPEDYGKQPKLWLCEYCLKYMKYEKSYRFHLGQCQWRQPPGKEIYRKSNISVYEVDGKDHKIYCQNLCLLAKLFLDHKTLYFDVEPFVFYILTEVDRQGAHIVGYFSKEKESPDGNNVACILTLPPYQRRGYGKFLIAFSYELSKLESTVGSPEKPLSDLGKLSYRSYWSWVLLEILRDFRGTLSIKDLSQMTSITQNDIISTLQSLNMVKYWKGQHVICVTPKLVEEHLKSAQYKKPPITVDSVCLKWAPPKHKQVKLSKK

[2] = species: Homo sapiens; assay: Inhibition of human recombinant KDAC8 using Boc-Lys-(Ac)-AMC as substrate at 50 to 100 uM incubated for 45 mins by fluorescence microplate reader analysis; conditions: dose 50-100 µM
[3] = system: HCT-116; assay: Induction of apoptosis in human HCT-116 cells assessed as increase in apoptotic cells at 100 uM incubated for 72 hrs in presence of chloroquine by Annexin V-FITC staining based flow cytometry; format: functional, cell-based
[4] = system: HeLa; assay: Induction of cell cycle arrest in human HeLa cells assessed as increase in number of cells at sub-G1 phase with DNA hypodiploid at 50 uM incubated for 72 hrs by PI-staining based flow cytometry (Rvb=2%); format: functional
[5] = system: HeLa; assay: Effect on cell cycle progression in human HeLa cells assessed as changes in cell cycle stages at 50 to 100 uM incubated for 72 hrs by PI-staining based flow cytometry; format: functional; conditions: dose 50-100 µM
[6] = system: NCI-H1299; assay: Induction of autophagy in human NCI-H1299 cells stably expressing EGFP-LC3 assessed as increase in EGFP-LC3 puncta formation at 10 to 100 uM incubated for 48 hrs by Fluorescence microscopy; format: functional, cell-based; conditions: dose 10-100 µM
[7] = system: HeLa; assay: Antiproliferative activity against human HeLa cells assessed as cell proliferation inhibition at 10 to 100 uM incubated for 72 hrs by MTT assay; format: functional, cell-based; conditions: dose 10-100 µM
[8] = target: T1, Histone acetyltransferase KAT8 (Homo sapiens); assay: Inhibition of human KAT8 in human HT-29 cells assessed as change in histone H3K27 acetylation level by measuring fluorescence intensity in nucleus at 50 uM incubated for 24 hrs by DAPI staining based immunofluorescence analysis; format: cell-based
[9] = system: HT-29; assay: Induction of cell cycle arrest in human HT-29 cells assessed as increase in number of cells at sub-G1 phase with DNA hypodiploid at 50 uM incubated for 72 hrs by PI-staining based flow cytometry (Rvb=2%); format: functional
[10] = system: NCI-H1299; assay: Induction of autophagy in human NCI-H1299 cells stably expressing EGFP-LC3 assessed as increase in autophagosome formation by measuring fluorescence spots at 10 to 100 uM incubated for 48 hrs by Fluorescence microscopy; format: functional, cell-based; conditions: dose 10-100 µM
[11] = system: HT-29; assay: Induction of apoptosis in human HT-29 cells assessed as slight increase in apoptotic cells at 50 to 100 uM incubated for 72 hrs by Annexin V-FITC staining based flow cytometry; format: functional, cell-based; conditions: dose 50-100 µM
[12] = system: HT-29; assay: Effect on cell cycle progression in human HT-29 cells assessed as changes in cell cycle stages at 50 to 100 uM incubated for 72 hrs by PI-staining based flow cytometry; format: functional; conditions: dose 50-100 µM
[13] = target: T2, Protein deacetylase HDAC6 (Homo sapiens) (UniProt Q9UBN7); assay: Inhibition of human recombinant KDAC6 using Boc-Lys-(Ac)-AMC as substrate at 50 to 100 uM incubated for 45 mins by fluorescence microplate reader analysis; conditions: dose 50-100 µM
T2 sequence (whole entry): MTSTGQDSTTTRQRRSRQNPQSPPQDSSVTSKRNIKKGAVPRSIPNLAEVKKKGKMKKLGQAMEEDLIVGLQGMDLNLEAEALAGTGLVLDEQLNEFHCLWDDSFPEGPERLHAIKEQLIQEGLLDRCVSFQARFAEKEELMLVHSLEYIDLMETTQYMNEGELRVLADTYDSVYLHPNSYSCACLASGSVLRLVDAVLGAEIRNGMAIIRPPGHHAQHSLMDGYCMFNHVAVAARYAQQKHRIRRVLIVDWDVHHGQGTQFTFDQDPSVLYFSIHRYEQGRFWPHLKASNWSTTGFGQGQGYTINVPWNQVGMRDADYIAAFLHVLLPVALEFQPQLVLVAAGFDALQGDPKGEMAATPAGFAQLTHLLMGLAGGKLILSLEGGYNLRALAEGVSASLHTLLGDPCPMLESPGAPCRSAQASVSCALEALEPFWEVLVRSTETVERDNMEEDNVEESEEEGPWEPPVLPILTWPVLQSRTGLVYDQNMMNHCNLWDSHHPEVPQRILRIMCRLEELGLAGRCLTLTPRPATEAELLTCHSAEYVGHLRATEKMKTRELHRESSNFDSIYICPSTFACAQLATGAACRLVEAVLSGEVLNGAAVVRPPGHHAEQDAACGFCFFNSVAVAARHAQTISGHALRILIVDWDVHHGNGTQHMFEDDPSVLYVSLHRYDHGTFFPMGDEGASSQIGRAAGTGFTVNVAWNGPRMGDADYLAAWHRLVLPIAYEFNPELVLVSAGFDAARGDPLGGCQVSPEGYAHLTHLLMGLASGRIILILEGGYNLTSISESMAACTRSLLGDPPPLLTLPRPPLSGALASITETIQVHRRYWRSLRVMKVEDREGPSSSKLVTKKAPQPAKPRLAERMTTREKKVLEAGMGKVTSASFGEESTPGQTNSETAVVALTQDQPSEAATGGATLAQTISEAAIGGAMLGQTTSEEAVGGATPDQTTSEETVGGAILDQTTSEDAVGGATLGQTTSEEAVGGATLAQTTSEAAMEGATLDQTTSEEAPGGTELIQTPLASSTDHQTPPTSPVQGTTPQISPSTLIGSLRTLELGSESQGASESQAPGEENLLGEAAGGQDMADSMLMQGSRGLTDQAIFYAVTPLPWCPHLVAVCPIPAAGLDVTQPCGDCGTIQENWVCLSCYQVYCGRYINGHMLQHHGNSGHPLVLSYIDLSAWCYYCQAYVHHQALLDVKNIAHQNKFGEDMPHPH

[14] = system: NCI-H460; assay: Antiproliferative activity against human NCI-H460 cells assessed as cell proliferation inhibition at 10 to 100 uM incubated for 72 hrs by MTT assay; format: functional, cell-based; conditions: dose 10-100 µM
[15] = system: HeLa; assay: Induction of apoptosis in human HeLa cells assessed as slight increase in apoptotic cells at 50 to 100 uM incubated for 72 hrs by Annexin V-FITC staining based flow cytometry; format: functional, cell-based; conditions: dose 50-100 µM

| inhibition [1] | inhibition [2] | inhibition [8] | inhibition [13] | SMILES | Activity [3] | Activity [4] | Activity [5] | Activity [6] | Activity [7] | Activity [9] | Activity [10] | Activity [11] | Activity [12] | Activity [14] | Activity [15] |
| --- | --- | --- | --- | --- | --- | --- | --- | --- | --- | --- | --- | --- | --- | --- | --- |
| inactive | inactive | inactive | inactive | CC1=NN(c2ccc(C(=O)O)cc2)C(=O)/C1=C\c1ccc[nH]1 | Active | 2% | inactive | Active | Active | 7% | Active | Active | inactive | Active | Active |
| inactive | inactive | inactive | inactive | O=C(O)c1ccc(N2N=C(c3ccccc3)/C(=C/c3ccc[nH]3)C2=O)cc1 | Active | 2% | inactive | Active | Active | 8% | Active | Active | inactive | inactive | Active |
